Literature values as cited in US8911966B2, “Efficient astaxanthin production strains derived from Haematococcus pluvialis” (Cognis IP Management GmbH, priority 2007, dated 2014).

Settings: versus α-tocopherol

In the case of `CC1=C(/C=C/C(C)=C/C=C/C(C)=C/C=C/C=C(C)/C=C/C=C(C)/C=C/C2=C(C)C(=O)C(O)CC2(C)C)C(C)(C)CC(O)C1=O` (stereo not drawn) [astaxanthin, 3,3′-dihydroxy-β,β-carotene-4,4′-dione], the “antioxidant activities relative to α-tocopherol (vitamin E)” value is listed as “over 500 times”.
